Measurements as given in patent US12643871B2, “Aryl formamide compound containing chiral sulfur oxide or salt thereof, preparation method, herbicidal composition and use thereof” (Qingdao Kingagroot Chemical Compound Co., Ltd., priority 2019, dated 2026).

Columns and labels:
[1] = test system: Rice; assay: Transplanted rice safety evaluation; type: in vivo, rice (japonica rice/Indica rice); conditions: 60 g/ha; transplanted 3 leaf stage rice, 21 days after treatment
Description: The activity level criteria for harmful plant damage (i.e., growth control rate) are as follows: • Level 5: growth control rate is above 85%; • Level 4: growth control rate is greater than or equal to 60% and less than 85%; • Level 3: growth control rate is greater than or equal to 40% and less than 60%; • Level 2: growth control rate is greater than or equal to 20% and less than 40%; • Level 1: growth control rate is greater than or equal to 5% and less than 20%; • Level 0: growth control rate is less than 5%.
In addition, the rice field soil that loaded into the 1/1,000,000 ha pot was leveled to keep water storage at 3-4 cm depth. The 3 leaf stage rice (japonica rice/Indica rice) was transplanted at 3 cm of transplanting depth the next day. The compound of the present invention was treated by the same way after 5 days of transplantation.
The fertility condition of Echinochloa crusgali, Scirpus juncoides, Bidens tripartita, Leptochloa chinensis, Sagittaria trifolia and Monochoria vaginalis 14 days after the treatment of the compound of the invention and the fertility condition of rice 21 days after the treatment of the compound of the invention respectively with the naked eye. Evaluate the weed control effect with 0-5 activity standard level. Many compounds show excellent activity and selectivity.

[2] = test system: Amaranthus retroflexus; assay: Weeding effect in post-emergence stage; type: in vivo; conditions: 250 g/ha; 2 leaf stage; 15 days after application; fresh weight control rate
Outline: (§1)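 Post-emergence spray, 2-leaf stage; doses 500–15 g/ha; acetone + Tween 80 + methyl oleate EC (1.5 L/ha) as synergist. Greenhouse 15 d. Readout: fresh weight control rate graded levels 0–5 (5 = above 85%, 0 = below 5%); triplicate means.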

[3] = test system: Setaria viridis; assay: Weeding effect in post-emergence stage; type: in vivo; conditions: 250 g/ha; 2 leaf stage; 15 days after application; fresh weight control rate
Outline: as §1

[4] = test system: Digitaria sanguinalis; assay: Weeding effect in post-emergence stage; type: in vivo; conditions: 250 g/ha; 2 leaf stage; 15 days after application; fresh weight control rate
Outline: as §1

[5] = test system: Abutilon theophrasti; assay: Weeding effect in post-emergence stage; type: in vivo; conditions: 250 g/ha; 2 leaf stage; 15 days after application; fresh weight control rate
Outline: as §1

[6] = test system: Echinochloa crusgali; assay: Weeding effect in post-emergence stage; type: in vivo; conditions: 250 g/ha; 2 leaf stage; 15 days after application; fresh weight control rate
Outline: as §1

[7] = test system: Sagittaria trifolia; assay: Weed control effect evaluation in rice field; type: in vivo; conditions: 60 g/ha; rice field pot, 14 days after treatment; ALS-inhibitor resistant weed from Heilongjiang
Outline: (§2)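 Pots of paddy soil sown with weeds under 0.5–1 cm water, then 3–4 cm; WP or SC dilutions dripped at 0.5-leaf stage (Sagittaria tubers at primary-leaf stage). Weeds scored visually 14 days after treatment on 0–5 scale: 5 >85%, 4 60–85%, 3 40–60%, 2 20–40%, 1 5–20%, 0 <5% growth control.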

[8] = test system: Leptochloa chinensis; assay: Weed control effect evaluation in rice field; type: in vivo; conditions: 60 g/ha; rice field pot, 14 days after treatment
Outline: as §2

[9] = test system: Monochoria vaginalis; assay: Weed control effect evaluation in rice field; type: in vivo; conditions: 60 g/ha; rice field pot, 14 days after treatment; ALS-inhibitor resistant weed from Heilongjiang
Outline: as §2

[10] = test system: Echinochloa crusgali; assay: Weed control effect evaluation in rice field; type: in vivo; conditions: 60 g/ha; rice field pot, 14 days after treatment; ALS-inhibitor resistant weed from Heilongjiang
Outline: as §2

For CC[S@@+]([O-])c1c(C(F)(F)F)ccc(C(=O)Nc2nnc(C)o2)c1SC [Compound 548], the “Herbicidal effects of compounds, Rice, 0-5 activity standard level” value [1] was 0 (Level 0: growth control rate is less than 5%), the “weeding effect in post-emergence stage, activity level (growth control rate), Amaranthus retroflexus” value [2] was 5 (Level 5: growth control rate is above 85%) and the “weeding effect in post-emergence stage, activity level (growth control rate), Setaria viridis” value [3] was 5 (Level 5: growth control rate is above 85%). The “weeding effect in post-emergence stage, activity level (growth control rate), Digitaria sanguinalis” value [4] was 5 (Level 5: growth control rate is above 85%), the “weeding effect in post-emergence stage, activity level (growth control rate), Abutilon theophrasti” value [5] was 5 (Level 5: growth control rate is above 85%) and the “weeding effect in post-emergence stage, activity level (growth control rate), Echinochloa crusgali” value [6] was 5 (Level 5: growth control rate is above 85%). For the same compound, the “Herbicidal effects of compounds, Sagittaria trifolia, 0-5 activity standard level” value [7] was 5 (Level 5: growth control rate is above 85%), the “Herbicidal effects of compounds, Leptochloa chinensis, 0-5 activity standard level” value [8] was 5 (Level 5: growth control rate is above 85%) and the “Herbicidal effects of compounds, Monochoria vaginalis, 0-5 activity standard level” value [9] was 5 (Level 5: growth control rate is above 85%). For the same compound, the “Herbicidal effects of compounds, Echinochloa crusgali, 0-5 activity standard level” value [10] was 5 (Level 5: growth control rate is above 85%).
